Source: patent US7304090B2, “Inhibition of the cystic fibrosis transmembrane conductance regulator chloride channel” (The University of Bristol, priority 2000, dated 2007)

Columns and labels:
wild-type human CFTR = target: T1, wild-type human CFTR (Homo sapiens, UniProt P13569); test: CFTR Cl− channels recorded in excised inside-out membrane patches from C127 cells (patch-clamp); assay type: biochemical; conditions: for effect on CFTR Cl− currents: PKA and ATP present
T1 construct: expressed in transfected cells
T1 sequence (P13569 whole entry): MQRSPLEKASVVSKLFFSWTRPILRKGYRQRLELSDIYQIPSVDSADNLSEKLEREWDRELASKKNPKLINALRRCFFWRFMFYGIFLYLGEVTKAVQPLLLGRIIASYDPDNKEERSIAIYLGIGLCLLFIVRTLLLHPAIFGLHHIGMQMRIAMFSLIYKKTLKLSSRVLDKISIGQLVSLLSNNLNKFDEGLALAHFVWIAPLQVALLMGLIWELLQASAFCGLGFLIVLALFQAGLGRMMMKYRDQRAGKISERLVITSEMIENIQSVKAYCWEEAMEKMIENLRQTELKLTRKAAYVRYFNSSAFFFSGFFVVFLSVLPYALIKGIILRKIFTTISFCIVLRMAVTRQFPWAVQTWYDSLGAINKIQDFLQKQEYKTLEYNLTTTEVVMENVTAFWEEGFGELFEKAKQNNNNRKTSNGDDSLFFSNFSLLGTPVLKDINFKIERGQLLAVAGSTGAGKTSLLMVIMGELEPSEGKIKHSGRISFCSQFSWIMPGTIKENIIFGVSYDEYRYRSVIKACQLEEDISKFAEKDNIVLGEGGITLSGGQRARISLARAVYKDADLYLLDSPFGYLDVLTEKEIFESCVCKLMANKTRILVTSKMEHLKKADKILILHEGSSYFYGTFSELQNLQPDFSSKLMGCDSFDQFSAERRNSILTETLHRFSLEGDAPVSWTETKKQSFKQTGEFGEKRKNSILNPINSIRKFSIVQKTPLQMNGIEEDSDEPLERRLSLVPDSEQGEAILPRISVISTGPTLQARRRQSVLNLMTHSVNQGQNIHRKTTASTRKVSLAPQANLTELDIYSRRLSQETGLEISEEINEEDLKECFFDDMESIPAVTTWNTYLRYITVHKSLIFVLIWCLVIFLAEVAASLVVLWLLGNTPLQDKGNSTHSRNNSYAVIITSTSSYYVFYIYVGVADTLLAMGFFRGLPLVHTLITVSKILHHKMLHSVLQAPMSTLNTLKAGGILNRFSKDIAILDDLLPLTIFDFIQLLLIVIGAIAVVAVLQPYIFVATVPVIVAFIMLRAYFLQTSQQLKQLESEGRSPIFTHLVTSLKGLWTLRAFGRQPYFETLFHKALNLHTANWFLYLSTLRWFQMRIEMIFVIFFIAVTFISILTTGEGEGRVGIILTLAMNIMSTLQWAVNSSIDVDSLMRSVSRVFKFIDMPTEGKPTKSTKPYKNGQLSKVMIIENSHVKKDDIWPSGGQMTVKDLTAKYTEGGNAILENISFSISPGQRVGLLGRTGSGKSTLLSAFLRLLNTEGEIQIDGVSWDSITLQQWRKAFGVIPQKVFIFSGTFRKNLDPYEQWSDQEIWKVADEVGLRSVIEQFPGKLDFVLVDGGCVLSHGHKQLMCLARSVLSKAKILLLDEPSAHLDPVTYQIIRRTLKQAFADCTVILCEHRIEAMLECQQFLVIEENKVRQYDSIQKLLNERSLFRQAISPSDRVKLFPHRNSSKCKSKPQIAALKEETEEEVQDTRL
Description: For electrophysiological experiments, we used mouse mammary epithelial cells (C127 cells) stably expressing wild-type human CFTR (12). C127 cells expressing wild-type CFTR were cultured as previously described (10). Cells were seeded onto glass coverslips and used within 48 h.
The established sign convention was used throughout; currents produced by positive charge moving from intra- to extracellular solutions (anions moving in the opposite direction) are shown as positive currents.
[…] […] All experiments were conducted at 37° C.
PKA was maintained in the intracellular solution for the duration of experiments. Unless otherwise stated, voltage was −50 mV.
In time course studies, each point is the average current for a 4 s period with data points collected continuously; no data were collected while solutions were changed. Average current (I) for a specific intervention was determined as the average of all the data points collected during the intervention. […] Mean data were fitted to a linear form of equation (1) using linear least-squares regression to yield Ki and n values.
To measure single-channel current amplitude (i), Gaussian distributions were fitted to current amplitude histograms. For open probability (Po) and kinetic analyses, lists of open and closed times were created using a half-amplitude crossing criterion for event detection. Transitions <1 ms in duration were excluded from the analyses. Po was calculated using the equation: Po=(T1+T2+ . . . +TN)/(NTtot), (2) where N is the number of channels; Ttot is the total time analysed, and T1 is the time that one or more channels are open, T2 is the time two or more channels are open and so on. Only membrane patches that contained a single active channel were used for single-channel kinetic analyses.
To investigate whether inhibition of CFTR by fluorescein derivatives was voltage dependent, we used voltage ramp protocols. Macroscopic current-voltage (I-V) relationships were obtained in the absence and presence of fluorescein derivatives by averaging currents generated by 15-30 ramps of voltage each of 2 s duration; holding voltage was −50 mV. Basal currents recorded in the absence of PKA and ATP were subtracted from those recorded in the absence and presence of fluorescein derivatives to determine the effect of these agents on CFTR Cl^− currents.

Type I MDCK cells = test: Proliferation of MDCK cells (cell counting); assay type: cell-based, canine
Description: (§1) For cyst growth and cell proliferation experiments, we used Type I Madin-Darby canine kidney (MDCK) cells. We chose Type I MDCK cells because they form cysts when grown in collagen gels in the presence of cAMP agonists (26) and because they express the CFTR Cl^− channel (27). MDCK cells were cultured in MDCK media (a 1:1 mixture of Dulbecco's Modified Eagle Medium (DMEM) and Ham's F-12 nutrient medium supplemented with 100 U ml^−1 penicillin, and 100 μg ml^−1 streptomycin and either 10% fetal bovine serum (FBS; cyst growth) or 5% FBS and 1% insulin-transferrin-selenium-X (ITS-X) supplement (cell proliferation); all from Life Technologies Ltd, Paisley, UK) at 37° C. in a humidified atmosphere of 5% CO2.
To test the effect of CFTR modulators on the proliferation of MDCK cells, we used Type I MDCK cells grown in media containing 5% FBS and 1% ITS-X supplement. On day −1, MDCK cells were seeded at 7.5×10^4 cells ml^−1 in 35 mm dishes containing MDCK media with 1% FBS and 1% ITS-X supplement. On day 0, the concentration of FBS was reduced further to 0.01% and CFTR modulators added to the MDCK media. MDCK media containing CFTR modulators was changed every 2 days for a total period of 6 days. To determine the number of cells per 35 mm dish, Type I MDCK cells were harvested using trypsin (0.25% wt/vol), centrifuged at 1200 rpm for 5 min and resuspended in 1 ml of MDCK media before counting using a haemocytometer.

[1] = system: Type I Madin-Darby canine kidney (MDCK) cells; test: Cyst growth of MDCK cells in collagen gels with cAMP agonists; assay type: cell-based; conditions: for size of cysts (phase-contrast): days 12 to 21
Description: as §1
To grow cysts, MDCK cells were cultured in collagen gels using a modification of the method of Grantham et al. (26). Cells were trypsinized with 0.25% (wt/vol) trypsin for 30 minutes at 37° C., diluted with MDCK media containing 10% FBS to form a suspension of between 1-3×10^4 cells ml^−1, and aliquoted into individual wells of a 24-well plate (0.1 ml per well). Each well contained 0.4 ml of ice-cold Vitrogen (3.0 mg ml^−1 collagen; Cohesion Technologies Inc., Palo Alto, USA) supplemented with 10% (vol/vol) 10× minimum essential medium, 10 mM N-[2-hydroxyethyl]piperazine-N′-[2-ethanesulphonic acid] (Hepes), 27 mM NaHCO3, 100 U ml^−1 penicillin, and 100 μg ml^−1 streptomycin, and adjusted to pH 7.4 with NaOH. The 24-well plate was gently agitated to distribute cells throughout the Vitrogen and incubated in a water bath at 37° C. for 90 minutes to promote gelation of the Vitrogen.
After gelation, 1.5 ml MDCK media containing 10% FBS was added to each well of the 24-well plate. To promote cyst growth, we added cAMP agonists (forskolin (10 μM), 3-isobutyl-1-methylxanthine (IBMX; 100 μM), and 8-(4-chlorophenylthio) adenosine 3′:5′-cyclic monophosphate (CPT-cAMP; 500 μM)) to the MDCK media. Plates were maintained at 37° C. in a humidified atmosphere of 5% CO2 and the MDCK media containing cAMP agonists changed every three days.
Twelve days after seeding collagen gels with MDCK cells, cysts were readily detected at ×1000 magnification using an inverted microscope with phase contrast optics (Leica, model DMIL, Milton Keynes, UK). To test the effect of CFTR modulators on cyst growth, drugs were added to MDCK media in the continued presence of cAMP agonists. MDCK media containing cAMP agonists and CFTR modulators was changed every 3 days for a total period of 9 days. Photographs of individual cysts were taken before the addition of CFTR modulators and at three day intervals over the duration of the experiment. To identify individual cysts, each cyst was assigned a unique reference number using a grid placed below the 24-well plate.
The diameter of cysts was measured directly from photographs of cysts using images that had been magnified by identical amounts. By assuming that cysts are spherical in shape, we calculated cyst volume ( 4/3·π·r^3).

SMILES: COc1ccc(Cl)cc1C(=O)NCCc1ccc(S(=O)(=O)NC(=O)NC2CCCCC2)cc1 [glibenclamide]
- effect on channel block by phloxine B (20 μM) (wild-type human CFTR; glibenclamide 50 μM): potentiated channel block
- inhibition of cell growth in the presence of cAMP agonists (Type I MDCK cells): unaffected by cAMP agonists
- rank order of prevention of cell growth (Type I MDCK cells): ouabain (1 μM)=phloxine B (40 μM)=genistein (100 μM)=NPPB (400 μM)>glibenclamide (100 μM)
- cell growth (number of cells), day 0 to 6 (Type I MDCK cells; 100 μM): prevented cell growth
- rank order of decrease of cyst volume [1]: glibenclamide (100 μM)≧ouabain (1 μM)≧NPPB (400 μM)≧genistein (100 μM)>bumetanide
- cyst volume ([1]; 100 μM, day 21 vs day 12): decreased cyst volume
- size of cysts (phase-contrast) ([1]; 100 μM): visible decrease in the size of cysts

SMILES: O=C(O)c1c(Cl)c(Cl)c(Cl)c(Cl)c1-c1c2cc(Br)c(=O)c(Br)c-2oc2c(Br)c(O)c(Br)cc12 [phloxine B]
- n (slope factor, Hill coefficient) of CFTR inhibition (wild-type human CFTR): 2
- potency of CFTR inhibition compared with glibenclamide (wild-type human CFTR): potency greater than or equal to that of glibenclamide
- reversibility of CFTR inhibition (wild-type human CFTR): partially reversible
- effect of ATP (5 mM) on inhibition of CFTR Cl− currents (wild-type human CFTR; 20 μM): fails to relieve
- pattern of channel gating (wild-type human CFTR; 20 μM): dramatically altered the pattern of channel gating
- open probability (Po) (wild-type human CFTR; 20 μM, P<0.05 vs control): significantly decreased
- single-channel current amplitude (i) (wild-type human CFTR; 20 μM, P<0.05 vs control): significantly decreased
- channel block at positive voltages (wild-type human CFTR; 40 μM, symmetrical 147 mM Cl−): relieved
- effect on CFTR Cl− currents at negative voltages (wild-type human CFTR; 40 μM, symmetrical 147 mM Cl−): decreased CFTR Cl^− currents
- effect on CFTR Cl− currents (wild-type human CFTR; 1-5 μM in intracellular solution): stimulated
- effect on CFTR Cl− currents (wild-type human CFTR; 20-50 μM in intracellular solution): concentration-dependent decrease
- rank order of potency for CFTR inhibition (wild-type human CFTR; concentration-response, FIG. 3): bengal rose B>phloxine B>eosin Y≧tetrachlorofluorescein>>fluorescein
- stimulation of CFTR channel activity (wild-type human CFTR; concentration-response, FIG. 3): stimulated channel activity
- effect on activity of CFTR Cl− channels (wild-type human CFTR; in the absence of either ATP or PKA): without effect
- effect on channel block by glibenclamide (50 μM) (wild-type human CFTR; phloxine B 1 μM): failed to prevent channel block
- I (average CFTR Cl− current) relative to control (wild-type human CFTR; phloxine B 20 μM together with glibenclamide 50 μM): 10±2 % of the control value
- I (average CFTR Cl− current) relative to control (wild-type human CFTR; phloxine B 20 μM, ATP 5 mM): 51±5 % of the control value
- I (average CFTR Cl− current) relative to control (wild-type human CFTR; phloxine B 20 μM, […]): 56±6 % of the control value
- I (average CFTR Cl− current) relative to control (wild-type human CFTR; phloxine B 20 μM, […], listed as Phloxine B): 59±4 % of the control value
- voltage-dependence of CFTR inhibition (wild-type human CFTR; voltage ramp ±100 mV, symmetrical 147 mM Cl−, ATP 1 mM): voltage-dependent
- inhibition of cell growth in the presence of cAMP agonists (Type I MDCK cells): unaffected by cAMP agonists
- rank order of prevention of cell growth (Type I MDCK cells): ouabain (1 μM)=phloxine B (40 μM)=genistein (100 μM)=NPPB (400 μM)>glibenclamide (100 μM)
- cell growth (number of cells), day 0 to 6 (Type I MDCK cells; 40 μM): prevented cell growth
- size of cysts (phase-contrast) ([1]; 40 μM): visible decrease in the size of cysts
